Key:
[1] = tested on: PBMC (polyclonal gluten-specific T cells) of paediatric and adult CD patients; assay: IFN-γ ELISpot of PBMC after 3 day oral wheat challenge (SFU, % of maximal peptide response, dominance scores, EC50; Examples 5-6); type: cell-based, human; details: for IFN-γ ELISpot response: after oral wheat challenge
[2] = tested on: PBMC (polyclonal gluten-specific T cells) of paediatric and adult CD patients; details: corresponding adult data shown for comparison (14); cited from earlier work

In the case of LPYPQPELPYPQP [Peptide W01], the “Dominance score 3-5yrs (n = 9)” value ([1]; CD children 3-5yrs, n = 9, following wheat challenge, mean percentage of maximal peptide response) is reported as 68.5, the “Dominance score 6-10yrs (n = 10)” value ([1]; CD children 6-10yrs, n = 10, following wheat challenge, mean percentage of maximal peptide response) is reported as 71.7 and the “Dominance score 11-18yrs (n = 11)” value ([1]; CD children 11-18yrs, n = 11, following wheat challenge, mean percentage of maximal peptide response) is reported as 51.0. The “Dominance score Mean all ages” value ([1]; CD children, all ages, following wheat challenge (Table 9)) was 62.6, the “dominance hierarchy across all age groupings” value ([1]; Example 5) was “most dominant three peptides” and the “dominance hierarchy across all age groups” value ([1]; Example 6) was “most dominant four peptides”. For the same sequence, the “Dominance scores 3-5 yrs” value ([1]; children with celiac disease 3-5 yrs after wheat challenge (Table 14)) was 65, the “Dominance scores 6-10 yrs” value ([1]; children with celiac disease 6-10 yrs after wheat challenge (Table 14)) was 72 and the “Dominance scores 11-18 yrs” value ([1]; children with celiac disease 11-18 yrs after wheat challenge (Table 14)) was 51. For the same sequence, the “Dominance scores Mean all ages” value ([1]; mean of all subjects (Table 14)) was 62, the “IFN-γ ELISpot response” value ([1]; patient A, 11-17 yrs, cut-off 10 SFU) was 2 SFU and the “Significant response as percentage of maximal peptide SFU” value (“Significant response as percentage” for short) ([1]; patient D, max peptide 30.5 SFU) was “′′ (21-40% = ′′)”. For the same sequence, the “IFN-γ ELISpot response” value ([1]; patient E, H, 11-17 yrs, cut-off 10 SFU) was 111 SFU, the “Significant response as percentage” value ([1]; patient E, max peptide 224 SFU) was “′′′ (41-70% = ′′′)” and the “IFN-γ ELISpot response” value ([1]; patient F, 11-17 yrs, cut-off 10 SFU) was 161 SFU. For the same sequence, the “Significant response as percentage” value ([1]; patient F, max peptide 178 SFU) was “+ (>70% = +)”, the “IFN-γ ELISpot response” value ([1]; patient G, 11-17 yrs, cut-off 10 SFU) was 7 SFU and the “IFN-γ ELISpot response” value ([1]; patient H (HLA-DQ2.5 homozygote), 3-5yrs, cut-off 10 SFU) was 33 SFU. The “IFN-γ ELISpot response” value ([1]; patient H, 11-17 yrs, cut-off 10 SFU) was 10 SFU, the “Significant response as percentage” value ([1]; patient H, max peptide 17 SFU) was “′′′ (41-70% = ′′′)” and the “IFN-γ ELISpot response” value ([1]; patient ID not given, 11-17 yrs, cut-off 10 SFU) was 62 SFU. For the same sequence, the “Significant response as percentage” value ([1]; patient ID not given, max peptide 95 SFU) was “′′′ (41-70% = ′′′)”, the “Significant response as percentage” value ([1]; patient II, max peptide 15 SFU) was “+ (>70% = +)” and the “Significant response as percentage” value ([1]; patient J, max peptide 196 SFU) was “+ (>70% = +)”. For the same sequence, the “Significant response as percentage” value ([1]; patient K, max peptide 53 SFU) was “+ (>70% = +)”, the “Significant response as percentage” value ([1]; patient L, max peptide 11 SFU) was “+ (>70% = +)” and the “Significant response as percentage” value ([1]; patient M, max peptide 48 SFU) was “′′′ (41-70% = ′′′)”. For the same sequence, the “IFN-γ ELISpot response” value ([1]; patient N, 3-5yrs, cut-off 10 SFU) was 6 SFU, the “IFN-γ ELISpot response” value ([1]; patient P, 11-17 yrs, cut-off 21.6 SFU) was 36 SFU and the “Significant response as percentage” value ([1]; patient P, max peptide 64 SFU) was “′′′ (41-70% = ′′′)”. The “IFN-γ ELISpot response” value ([1]; patient Q, 11-17 yrs, cut-off 10 SFU) was 78 SFU, the “Significant response as percentage” value ([1]; patient Q, max peptide 97 SFU) was “+ (>70% = +)” and the “IFN-γ ELISpot response” value ([1]; patient U, H, 11-17 yrs, cut-off 10 SFU) was 44 SFU. The “Significant response as percentage” value ([1]; patient U, max peptide 81 SFU) was “′′′ (41-70% = ′′′)”, the “IFN-γ ELISpot response” value ([1]; patient V, 6-10 yrs, cut-off 10 SFU) was 35 SFU and the “Significant response as percentage” value ([1]; patient V, max peptide 35 SFU) was “+ (>70% = +)”. The “IFN-γ ELISpot response” value ([1]; patient Y, 6-10 yrs, cut-off 10 SFU) was 16 SFU, the “Significant response as percentage” value ([1]; patient Y, max peptide 16 SFU) was “+ (>70% = +)” and the “IFN-γ ELISpot response” value ([1]; patient eleven, 6-10 yrs, cut-off 10 SFU) was 45 SFU. For the same sequence, the “Significant response as percentage” value ([1]; patient eleven, max peptide 57 SFU) was “+ (>70% = +)”, the “Significant response as percentage” value ([1]; patient five, max peptide 48 SFU) was “′′′ (41-70% = ′′′)” and the “IFN-γ ELISpot response” value ([1]; patient four, 3-5yrs, cut-off 10 SFU) was 44 SFU. For the same sequence, the “Significant response as percentage” value ([1]; patient four, max peptide 44 SFU) was “+ (>70% = +)”, the “IFN-γ ELISpot response” value ([1]; patient seven, 6-10 yrs, cut-off 10.5 SFU) was 3 SFU and the “IFN-γ ELISpot response” value ([1]; patient ten, 3-5yrs, cut-off 10 SFU) was 9 SFU. For the same sequence, the “IFN-γ ELISpot response” value ([1]; patient three, 6-10 yrs, cut-off 10.5 SFU) was 196 SFU, the “IFN-γ ELISpot response” value ([1]; patient twelve, 11-17 yrs, cut-off 10 SFU) was 12 SFU and the “IFN-γ ELISpot response” value ([1]; patient two, 3-5yrs, cut-off 10 SFU) was 33 SFU. For the same sequence, the “Significant response as percentage” value ([1]; patient two, max peptide 60 SFU) was “′′′ (41-70% = ′′′)” and the “Dominance scores 18+ yrs” value [2] was 69.

Reference: US20170232083A1, “METHODS OF DIAGNOSIS AND TREATMENT OF CELIAC DISEASE IN CHILDREN” (priority 2014, published 2017)
